Measured values published in patent publication US20080090805A1, “CB-1 MODULATING COMPOUNDS AND THEIR USE” (ACADIA PHARMACEUTICALS INC., priority 2005, published 2008).

Target: CB1 (mutant) (Homo sapiens, UniProt P21554)
Experiment: R-SAT functional receptor assay, CB1 (mutant, truncated after amino acid 417)
Assay type: cell-based
Settings: Appendix A, R-SAT CB1; for IC50: receptor form (mutant or wild-type) not stated, read-out: pIC50 (converted); for Emax: receptor form not stated, relative to SR141716 (100%), read-out: % Inhibition

CB1 (mutant), sequence (P21554 1-417, change not shown): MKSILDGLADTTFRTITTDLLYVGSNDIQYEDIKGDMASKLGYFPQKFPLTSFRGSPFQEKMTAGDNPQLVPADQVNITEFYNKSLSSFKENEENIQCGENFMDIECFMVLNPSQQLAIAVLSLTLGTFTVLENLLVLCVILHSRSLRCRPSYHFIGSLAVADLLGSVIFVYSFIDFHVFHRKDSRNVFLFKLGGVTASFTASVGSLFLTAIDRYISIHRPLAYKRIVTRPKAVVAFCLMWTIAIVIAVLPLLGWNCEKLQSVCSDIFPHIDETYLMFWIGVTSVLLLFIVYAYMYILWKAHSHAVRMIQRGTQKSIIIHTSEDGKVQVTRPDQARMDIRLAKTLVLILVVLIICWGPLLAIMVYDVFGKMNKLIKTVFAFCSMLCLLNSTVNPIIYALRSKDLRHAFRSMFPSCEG

IC50	Emax	Compound
50.1 nM	37%	CCCCC(=O)c1ccc2c(c1)N=C(C1CCCCC1)c1ccccc1S2
50.1 nM	118%	CCCC1=Nc2cc(C(=O)NCCC3=CCCCC3)ccc2Sc2ccccc21
50.1 nM	92%	CCCC1=Nc2cc(C(=O)NCCCOCC)ccc2Sc2ccccc21
50.1 nM	77%	COc1ccc(C2=Nc3cc(C(=O)NNC(=O)Cc4ccccc4)ccc3Sc3ccccc32)cc1
50.1 nM	55%	CCCCC1=Nc2cc(C(=O)NC)ccc2Sc2ccccc21
50.1 nM	95%	O=C(NCc1ccncc1)c1ccc2c(c1)N=C(c1cccc(F)c1)c1ccccc1S2
63.1 nM	90%	O=C(NCc1ccccn1)c1ccc2c(c1)N=C(c1ccc(F)cc1)c1ccccc1S2
63.1 nM	98%	CCONC(=O)c1ccc2c(c1)N=C(c1ccc(F)cc1)c1ccccc1S2
63.1 nM	93%	COc1ccc(C2=Nc3cc(C(=O)NCc4ccccn4)ccc3Sc3ccccc32)cc1
63.1 nM	94%	Cc1cccnc1C1=Nc2cc(C(=O)NCCC(C)C)ccc2Sc2ccccc21
63.1 nM	97%	CCCC1=Nc2cc(C(=O)NC(C)c3ccccc3)ccc2Sc2ccccc21 (centres unmarked)
63.1 nM	91%	CCONC(=O)c1ccc2c(c1)N=C(c1ccc(Cl)cc1)c1ccccc1S2
63.1 nM	103%	CCCC1=Nc2cc(C(=O)NCCCN(CC(C)C)CC(C)C)ccc2Sc2ccccc21
63.1 nM	105%	CCCC1=Nc2cc(C(=O)NCCN(CC(C)C)CC(C)C)ccc2Sc2ccccc21
63.1 nM	117%	CCCC1=Nc2cc(C(=O)NCCCOC(C)C)ccc2Sc2ccccc21
63.1 nM	88%	COCCNC(=O)c1ccc2c(c1)N=C(c1sccc1C)c1ccccc1S2
63.1 nM	104%	COCCNC(=O)c1ccc2c(c1)N=C(c1ccc(Cl)cc1F)c1ccccc1S2
63.1 nM	56%	O=C(NN1CCOCC1)c1ccc2c(c1)N=C(C1CCCCC1)c1ccccc1S2
63.1 nM	92%	CCCCN(C)C(=O)c1ccc2c(c1)N=C(c1ccc(Cl)cc1)c1ccccc1S2
63.1 nM	90%	CCCCN(C)C(=O)c1ccc2c(c1)N=C(c1cccc(F)c1)c1ccccc1S2
63.1 nM	106%	CCCCNC(=O)c1ccc2c(c1)N=C(c1ccc(Cl)cc1)c1ccccc1S2(=O)=O
79.4 nM	78%	CCCNC(=O)c1ccc2c(c1)N=C(c1ccccc1Cl)c1ccccc1S2
79.4 nM	73%	O=C(c1ccc2c(c1)N=C(c1ccccc1F)c1ccccc1S2)N1CCCCC1
79.4 nM	99%	N#Cc1ccc(C2=Nc3cc(C(=O)NCc4ccccn4)ccc3Sc3ccccc32)cc1
79.4 nM	80%	O=C(NN1CCOCC1)c1ccc2c(c1)N=C(c1cccc(Cl)c1)c1ccccc1S2
79.4 nM	112%	CCCC1=Nc2cc(C(=O)NC(C)C34CC5CC(CC(C5)C3)C4)ccc2Sc2ccccc21 (centres unmarked)
79.4 nM	90%	CCOCCNC(=O)c1ccc2c(c1)N=C(c1ccc(OC)cc1)c1ccccc1S2

IC50	Emax	Compound
79.4 nM	87%	CC(C)CNC(=O)c1ccc2c(c1)N=C(c1ccc(Cl)cc1Cl)c1ccccc1S2
79.4 nM	109%	C=C(/C=C\C1=CN=C(CCC)c2ccccc2S1)C(=O)NC1CCCC1
79.4 nM	90%	CCONC(=O)c1ccc2c(c1)N=C(c1cccc(Cl)c1)c1ccccc1S2
79.4 nM	110%	O=C(NCCc1cccnc1)c1ccc2c(c1)N=C(c1ccccc1F)c1ccccc1S2
100 nM	97%	CCCCN(C)C(=O)c1ccc2c(c1)N=C(c1ccc(OC)cc1)c1ccccc1S2
100 nM	81%	O=C(NC1CCCCNC1=O)c1ccc2c(c1)N=C(c1ccc(Cl)cc1)c1ccccc1S2 (centres unmarked)
100 nM	99%	CCCCN(CCCNC(=O)c1ccc2c(c1)N=C(CCC)c1ccccc1S2)Cc1ccccc1
100 nM	76%	O=C(NNC(O)c1ccc2c(c1)N=C(c1cccc(Br)c1)c1ccccc1S2)c1ccccc1 (centres unmarked)
100 nM	99%	COCCNC(=O)c1ccc2c(c1)N=C(c1ccccc1F)c1ccccc1S2
100 nM	87%	CCCCN(C)C(=O)c1ccc2c(c1)N=C(c1ccc(Cl)s1)c1ccccc1S2
100 nM	105%	CCCC1=Nc2cc(C(=O)NC(C)CC)ccc2Sc2ccccc21 (centres unmarked)
100 nM	102%	Cc1ccsc1C1=Nc2cc(C(=O)NCc3cccnc3)ccc2Sc2ccccc21
100 nM	97%	Cc1cccnc1C1=Nc2cc(C(=O)NCc3cccs3)ccc2Sc2ccccc21
100 nM	101%	Cc1ccsc1C1=Nc2cc(C(=O)NCCc3ccncc3)ccc2Sc2ccccc21
12.6 nM	98%	CCCCNC(=O)c1ccc2c(n1)N=C(c1ccccc1)c1ccccc1S2
158 nM	78%	O=C(NCc1ccccn1)c1ccc2c(c1)N=C(N1CCCCC1)c1ccccc1S2
158 nM	92%	O=C(NN1CCCC1)c1ccc2c(c1)N=C(c1ccc(F)cc1)c1ccccc1S2
158 nM	95%	CCCC1=Nc2cc(C(=O)NCCCSC3CCCCC3)ccc2Sc2ccccc21
158 nM	91%	COc1ccccc1C1=Nc2cc(C(=O)NCC(C)C)ccc2Sc2ccccc21
158 nM	57%	O=C(NN1CCCCC1)c1ccc2c(c1)N=C(c1ccccc1)c1ccccc1O2
158 nM	77%	CCOCCNC(=O)c1ccc2c(c1)N=C(c1ccc(C(=O)OCC)cc1)c1ccccc1S2
158 nM	90%	CCCC1=Nc2cc(C(=O)N3CCN(c4cc(C)ccc4C)CC3)ccc2Sc2ccccc21
158 nM	81%	O=C(NC1CCCC1)c1ccc2c(c1)N=C(c1ccccn1)c1ccccc1S2
158 nM	72%	CCCCN(C)C(=O)c1ccc2c(c1)N=C(c1sccc1C)c1ccccc1S2
158 nM	84%	COc1ccc(C2=Nc3cc(C(=O)NCc4ccc(S(N)(=O)=O)cc4)ccc3Sc3ccccc32)cc1
158 nM	113%	CCCC1=NC2=C(CCC(C(=O)NCCN(CC)CCNc3cc(Cl)ccc3C)=C2)Sc2ccccc21
158 nM	80%	CCCC1=Nc2cc(C(=O)NN3CCCCC3)ccc2Sc2ccccc21

IC50	Emax	Compound
158 nM	92%	Cc1ccsc1C1=Nc2cc(C(=O)NCc3ccncc3)ccc2Sc2ccccc21
158 nM	76%	O=C(NCCc1cccnc1)c1ccc2c(c1)N=C(c1ccccc1Cl)c1ccccc1S2
200 nM	90%	CC(C)CC1=Nc2cc(C(=O)NN3CCCCC3)ccc2Sc2ccccc21
200 nM	69%	O=C(NN1CCCC1)c1ccc2c(c1)N=C(c1ccccc1F)c1ccccc1S2
200 nM	89%	O=C(c1ccc2c(c1)N=C(N1CCCCC1)c1ccccc1S2)N1CCCCC1
200 nM	107%	CCCC1=Nc2cc(C(=O)NCCOC)ccc2Sc2ccccc21
200 nM	81%	CCONC(=O)c1ccc2c(c1)N=C(c1cccc(F)c1)c1ccccc1S2
200 nM	69%	CONC(=O)c1ccc2c(c1)N=C(c1ccc(Cl)cc1F)c1ccccc1S2
200 nM	66%	O=C(NNCc1ccccc1)c1ccc2c(c1)N=C(c1ccc(Cl)cc1)c1ccccc1S2
200 nM	77%	CCONC(=O)c1ccc2c(c1)N=C(c1sccc1C)c1ccccc1S2
200 nM	87%	CCONC(=O)c1ccc2c(c1)N=C(c1ccc(Cl)cc1F)c1ccccc1S2
200 nM	69%	O=C(Cc1ccccc1)NNC(=O)c1ccc2c(c1)N=C(N1CCCCC1)c1ccccc1S2
200 nM	108%	CCCC1=Nc2cc(C(=O)N3CCC(C(=O)OCC)CC3)ccc2Sc2ccccc21
200 nM	74%	O=C(NCCc1cccnc1)c1ccc2c(c1)N=C(c1ccc(Cl)cc1Cl)c1ccccc1S2
200 nM	87%	O=C(NCc1cccs1)c1ccc2c(c1)N=C(c1ccccc1Cl)c1ccccc1S2
251 nM	108%	CCCC1=Nc2cc(C(=O)N3CCN(c4ccc(F)cc4)CC3)ccc2Sc2ccccc21
251 nM	83%	O=C(NC1CCCCNC1=O)c1ccc2c(c1)N=C(c1ccc(F)cc1)c1ccccc1S2 (centres unmarked)
251 nM	80%	CCCCNC(=O)c1ccc2c(c1)N=C(c1ccccc1OC)c1ccccc1S2
251 nM	75%	O=C(NN1CCOCC1)c1ccc2c(c1)N=C(c1ccc(Cl)cc1)c1ccccc1S2
251 nM	100%	CCCCCC1=Nc2cc(C(=O)NN3CCCCC3)ccc2Sc2ccccc21
39.8 nM	107%	CCCC1=Nc2cc(C(=O)NCC(OCC)OCC)ccc2Sc2ccccc21
39.8 nM	80%	O=C(c1ccc2c(c1)N=C(c1cccc(Cl)c1)c1ccccc1S2)N1CCCCC1
> 126 nM	39%	Cc1cccnc1C1=Nc2cc(C(=O)NCc3cccnc3)ccc2Sc2ccccc21
> 1260 nM	29%	Cc1cc(NC(=O)c2ccc3c(c2)N=C(c2cccc(F)c2)c2ccccc2S3)no1
> 5010 nM	28%	Cc1cccnc1C1=Nc2cc(C(=O)NCCc3cccnc3)ccc2Sc2ccccc21

Compound	IC50	Emax
CCCC1=NC2=C(CCC(C(=O)NCCc3ccc(OCC)cc3)=C2)Sc2ccccc21	158 nM	102%
O=C(NN1CCOCC1)c1ccc2c(c1)N=C(c1cccc(F)c1)c1ccccc1S2	200 nM	63%
CCCCCC1=Nc2cc(C(=O)N3CCN(c4ccc(C)cc4C)CC3)ccc2Sc2ccccc21	200 nM	107%
